Assays:
E4bp4 = conditions: cited from earlier work
HPC culture = conditions: previously demonstrated, cited from earlier work
human HPCs = human HPCs cultured in vitro; previously demonstrated; cited from earlier work
HPCs = assay: NK cell production from HPCs treated with SR8278 and/or cultured on rDLL4 (flow cytometry); format: cell-based, mouse; conditions: SR8278 on day 2 of culture, no rDLL4; average of triplicate experiments
Description: HPCs were cultured in four sets of conditions in addition to control (non-treated) conditions: (i) treated with SR8278 on day 2 of culture (no recombinant DLL4, rDLL4); (ii) cultured on rDLL4 (no SR8278); (iii) cultured on rDLL4 and treated with SR8278 on day 0 of culture; or (iv) treated with SR8278 on day 0 of culture, cultured on rDLL4 from day 2. Aside from the different treatments, the culture conditions were otherwise identical to those previously described for NK cell production from HPCs.
This experiment was repeated with an expanded set of culture conditions, as set out in FIG. 13. The results of this duplicate experiment are illustrated in FIG. 14.
Lineage negative HPCs were purified from mouse bone marrow by crushing the leg bones in Phosphate-buffered Saline (PBS) with 2% fetal calf serum (FCS) (STEMCELL Technologies), topped up to 40 ml with magnetic-activated cell sorting (MACS) buffer (PBS, 2 mM EDTA, 0.5% BSA, sterile and filtered) and centrifuged at 800 g for 2 minutes. […]
(§1) Cells to be analysed by flow cytometry were passed through 40 μm cell strainers to remove clumps and washed with PBS buffer, centrifuged at 800 g for 2 minutes and resuspended in 100 μl fluorescent activated cell sorting (FACS) buffer (PBS plus 1% BSA) with appropriate fluorochrome conjugated antibodies at a dilution of 1 in 300. […]

E4bp4−/− Lin− BM cells = assay: NK cell development from E4bp4−/− Lin− BM cells on rDLL1/rDLL4-coated plates; format: cell-based, mouse; conditions: plates coated with 10 μg/ml ligand, first 7 days of culture, then IL-15
Description: As E4bp4 appeared to regulate Notch1 expression, it was speculated that enhanced Notch signalling, at an early stage, could potentially affect the development of NK cells from E4bp4^−/− HPCs. To study NK cell development from HPCs in the presence or absence of Notch signalling, Lin^− BM cells were cultured on either OP9 stromal cells or OP9-DL1 cells (that express the Notch ligand delta-like 1) (FIG. 10C). Subsequently, cells were transferred onto fresh OP9 and cultured in the presence of IL-15 (FIG. 11A). When E4bp4^−/− cells were grown on control OP9, no NK cell development was observed, but when the E4bp4^−/− cells were grown on OP9-DL1 for the first part of the culture, remarkably, NK cell development was rescued (FIG. 11B). The same result was not observed when the cells were grown on OP9-DL1 for the second part of the culture (FIG. 11B). To eliminate the influence of stromal cells, tissue culture plates were coated with either recombinant delta-like ligand 1 (rDLL1) or rDLL4 protein. […]
as §1

Row | Molecule | E4bp4 expression (E4bp4) | Optimum dose for in vitro NK cell production (HPC culture; added to the HPC culture, optimum time Day 2) | Increase of production of NK cells (HPC culture; upon administration of SR8278) | Human NK cell development (human HPCs) | % of NK cells produced (HPCs) | Rescue of NK cell production in the absence of E4bp4 (E4bp4−/− Lin− BM cells)
1 | CCOC(=O)C1Cc2ccccc2CN1C(=O)c1ccc(SC)s1 (stereo not drawn) [SR8278, 1,2,3,4-Tetrahydro-2-[[5-(methylthio)-2-thienyl]carbonyl]-3-isoquinolinecarboxylic acid ethyl ester] | increased | 10 µM | more than 2 fold | significantly increase | 57.5% | 
2 | rDLL1: recombinant delta-like ligand 1 protein (R&D Systems), coated on culture plates (protein, UniProt O00548 18-723, looked up) Delta-like protein 1: QVWSSGVFELKLQEFVNKKGLLGNRNCCRGGAGPPPCACRTFFRVCLKHYQASVSPEPPCTYGSAVTPVLGVDSFSLPDGGGADSAFSNPIRFPFGFTWPGTFSLIIEALHTDSPDDLATENPERLISRLATQRHLTVGEEWSQDLHSSGRTDLKYSYRFVCDEHYYGEGCSVFCRPRDDAFGHFTCGERGEKVCNPGWKGPYCTEPICLPGCDEQHGFCDKPGECKCRVGWQGRYCDECIRYPGCLHGTCQQPWQCNCQEGWGGLFCNQDLNYCTHHKPCKNGATCTNTGQGSYTCSCRPGYTGATCELGIDECDPSPCKNGGSCTDLENSYSCTCPPGFYGKICELSAMTCADGPCFNGGRCSDSPDGGYSCRCPVGYSGFNCEKKIDYCSSSPCSNGAKCVDLGDAYLCRCQAGFSGRHCDDNVDDCASSPCANGGTCRDGVNDFSCTCPPGYTGRNCSAPVSRCEHAPCHNGATCHERGHRYVCECARGYGGPNCQFLLPELPPGPAVVDLTEKLEGQGGPFPWVAVCAGVILVLMLLLGCAAVVVCVRLRLQKHRPPADPCRGETETMNNLANCQREKDISVSIIGATQIKNTNKKADFHGDHSADKNGFKARYPAVDYNLVQDLKGDDTAVRDAHSKRDTKCQPQGSSGEEKGTPTTLRGGEASERKRPDSGCSTSKDTKYQSVYVISEEKDECVIATEV |  |  |  |  |  | Only a very partial rescue

Reference: patent publication US11566226B2, “Natural killer cells” (Imperial College of Science, Technology and Medicine, priority 2017, dated 2023)
